Test results from patent publication US20100119599A1 (ARCHER PHARMACEUTICALS, INC., priority 2006, published 2010).

How the values were obtained:
Aβ1-42 = experiment: Measurement of Aβ1-42 in culture medium of 7W WT APP751 CHO cells by ELISA; assay type: cell-based, Chinese hamster; conditions: Cricetulus griseus; Table 1; 5 μM test compound; CHO cells stably transfected with human APP751; culture medium, ELISA; control DMSO; 0 = no detectable amount; read-out: Aβ1-42 (% of control)
Aβ1-40 = experiment: Measurement of Aβ1-40 in culture medium of 7W WT APP751 CHO cells by ELISA; assay type: cell-based, Chinese hamster; conditions: Cricetulus griseus; Table 1; 5 μM test compound; CHO cells stably transfected with human APP751; culture medium, ELISA; control DMSO; 0 = no detectable amount
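Note: 5 µM test compound but RI-coded compounds at 10 µM for 24 hours.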

SMILES	activity at 5 µM (Aβ1-42) [%]	activity at 5 µM (Aβ1-40) [%]
CCOC(=O)C1=C(C)NC2=C(C(=O)CC(c3ccc(OC)cc3)C2)C1c1ccc(OC)cc1 (stereo not shown) [ST017136, ethyl 4,7-bis(4-methoxyphenyl)-2-methyl-5-oxo-1,4,6,7,8-pentahydroquinoline-3-carboxylate]	66.1	87.7
CCOC(=O)C1=C(C)NC2=C(C(=O)CC(c3ccc(OC)cc3)C2)C1c1cccc(Cl)c1 (stereo not shown) [ST017144, ethyl 4-(3-chlorophenyl)-7-(4-methoxyphenyl)-2-methyl-5-oxo-1,4,6,7,8-pentahydroquinoline-3-carboxylate]	55.6	23.4
CCCCOC(=O)C1=C(C)NC2=C(C(=O)CCC2)C1c1ccc(Br)cc1 (stereo not shown) [ST017167, butyl 4-(4-bromophenyl)-2-methyl-5-oxo-1,4,6,7,8-pentahydroquinoline-3-carboxylate]	50.5	79
CC1=C(C(=O)OC2CCCCC2)C(c2ccc(Br)cc2)C2=C(CCCC2=O)N1 (stereo not shown) [ST017170, cyclohexyl 4-(4-bromophenyl)-2-methyl-5-oxo-1,4,6,7,8-pentahydroquinoline-3-carboxylate]	1.38	3.47
CC1=C(C(=O)OC2CCCC2)C(c2cccs2)C2=C(CCCC2=O)N1 (stereo not shown) [ST017171, cyclopentyl 2-methyl-5-oxo-4-(2-thienyl)-1,4,6,7,8-pentahydroquinoline-3-carboxylate]	63.4	62.5
CCCCOC(=O)C1=C(C)NC2=C(C(=O)CCC2)C1c1ccc(Cl)cc1 (stereo not shown) [ST017175, butyl 4-(4-chlorophenyl)-2-methyl-5-oxo-1,4,6,7,8-pentahydroquinoline-3-carboxylate]	34.5	59.8
COc1ccccc1C1C(C(=O)OC2CCCC2)=C(C)NC2=C1C(=O)CC(c1ccccc1)C2 (stereo not shown) [ST017176, cyclopentyl 4-(2-methoxyphenyl)-2-methyl-5-oxo-7-phenyl-1,4,6,7,8-pentahydroquinoline-3-carboxylate]	49.8	34.2
CCCOC(=O)C1=C(C)NC2=C(C(=O)CC(c3ccc(Cl)cc3)C2)C1c1ccc(Cl)c(Cl)c1 (stereo not shown) [ST017183, propyl 4-(3,4-dichlorophenyl)-7-(4-chlorophenyl)-2-methyl-5-oxo-1,4,6,7,8-pentahydroquinoline-3-carboxylate]	67.9	50.1
CCSCCOC(=O)C1=C(C)NC2=C(C(=O)CCC2)C1c1ccccc1Br (stereo not shown) [ST017199, 2-ethylthioethyl 4-(2-bromophenyl)-2-methyl-5-oxo-1,4,6,7,8-pentahydroquinoline-3-carboxylate]	100	47.9
CCSCCOC(=O)C1=C(C)NC2=C(C(=O)CC(c3ccccc3)C2)C1c1ccc(Br)cc1 (stereo not shown) [ST017201, 2-ethylthioethyl 4-(4-bromophenyl)-2-methyl-5-oxo-7-phenyl-1,4,6,7,8-pentahydroquinoline-3-carboxylate]	85.2	57.5
CC1=C(C(=O)OC(C)C)C(c2ccccc2)C2=C(CC(c3ccccc3)CC2=O)N1 (stereo not shown) [ST017212, methylethyl 2-methyl-5-oxo-4,7-diphenyl-1,4,6,7,8-pentahydroquinoline-3-carboxylate]	57.1	25.4
CC1=C(C(=O)OC(C)C)C(c2ccc(Cl)cc2)C2=C(CC(C)(C)CC2=O)N1 (stereo not shown) [ST017213, methylethyl 4-(4-chlorophenyl)-2,7,7-trimethyl-5-oxo-1,4,6,7,8-pentahydroquinoline-3-carboxylate]	91.4	44.4
COc1ccccc1C1C(C(=O)OC(C)C)=C(C)NC2=C1C(=O)CC(c1ccccc1)C2 (stereo not shown) [ST017220, methylethyl 4-(2-methoxyphenyl)-2-methyl-5-oxo-7-phenyl-1,4,6,7,8-pentahydroquinoline-3-carboxylate]	99.6	60.9
CCCOC(=O)C1=C(C)NC2=C(C(=O)CC(C)(C)C2)C1c1ccc(OC)cc1OC (stereo not shown) [ST017226, propyl 4-(2,4-dimethoxyphenyl)-2,7,7-trimethyl-5-oxo-1,4,6,7,8-pentahydroquinoline-3-carboxylate]	26.5	23.6
CCOc1cc(C2C(C(=O)OCc3ccccc3)=C(C)NC3=C2C(=O)CC(c2ccccc2)C3)ccc1O (stereo not shown) [ST017228, phenylmethyl 4-(3-ethoxy-4-hydroxyphenyl)-2-methyl-5-oxo-7-phenyl-1,4,6,7,8-pentahydroquinoline-3-carboxylate]	60.2	95.6
COc1ccc(C2C(C(=O)OC(C)C)=C(C)NC3=C2C(=O)CC(c2ccccc2)C3)c(OC)c1 (stereo not shown) [ST017229, methylethyl 4-(2,4-dimethoxyphenyl)-2-methyl-5-oxo-7-phenyl-1,4,6,7,8-pentahydroquinoline-3-carboxylate]	98.7	63.1

SMILES	activity at 5 µM (Aβ1-42) [%]	activity at 5 µM (Aβ1-40) [%]
CC(=O)Oc1ccc(C2C(C(=O)OCCOc3ccccc3)=C(C)NC3=C2C(=O)CC(c2ccccc2)C3)cc1 (stereo not shown) [ST017230, 4-{2-methyl-5-oxo-7-phenyl-3-[(2-phenoxyethyl)oxycarbonyl]-4-1,4,6,7,8-pentahydroquinolyl}phenyl acetate]	84.7	69.1
CC1=C(C(=O)OCc2ccccc2)C(c2cccs2)C2=C(CCCC2=O)N1 (stereo not shown) [ST017233, phenylmethyl 2-methyl-5-oxo-4-(2-thienyl)-1,4,6,7,8-pentahydroquinoline-3-carboxylate]	27.4	60.9
CCC(C)OC(=O)C1=C(C)NC2=C(C(=O)CC(c3ccc(OC)cc3)C2)C1c1cc2c(cc1[N+](=O)[O-])OCO2 (stereo not shown) [ST017236, methylpropyl 7-(4-methoxyphenyl)-2-methyl-4-(6-nitro(2H-benzo[d]1,3-dioxolan-5-yl))-5-oxo-1,4,6,7,8-pentahydroquinoline-3-carboxylate]	98.1	61
CC1=C(C(=O)OCC2CCCO2)C(c2cccc(Cl)c2)C2=C(CC(C)(C)CC2=O)N1 (stereo not shown) [ST017242, oxolan-2-ylmethyl 4-(3-chlorophenyl)-2,7,7-trimethyl-5-oxo-1,4,6,7,8-pentahydroquinoline-3-carboxylate]	0	49.6
CCOc1cc(C2C(C(=O)OCCSCC)=C(C)NC3=C2C(=O)CC(c2ccc(Cl)cc2)C3)ccc1O (stereo not shown) [ST017243, 2-ethylthioethyl 7-(4-chlorophenyl)-4-(3-ethoxy-4-hydroxyphenyl)-2-methyl-5-ox o-1,4,6,7,8-pentahydroquinoline-3-carboxylate]	15.6	69.6
COc1ccc(C2CC(=O)C3=C(C2)NC(C)=C(C(=O)OCc2ccccc2)C3c2cc(OC)c(OC)c(OC)c2)cc1 (stereo not shown) [ST017244, phenylmethyl 7-(4-methoxyphenyl)-2-methyl-5-oxo-4-(3,4,5-trimethoxyphenyl)-1,4,6,7,8-pentahydroquinoline-3-carboxylate]	24.4	65.4
CCCOC(=O)C1=C(C)NC2=C(C(=O)CC(C)(C)C2)C1c1ccncc1 (stereo not shown) [ST017249, propyl 2,7,7-trimethyl-5-oxo-4-(4-pyridyl)-1,4,6,7,8-pentahydroquinoline-3-carboxylate]	75.1	67
CCCOC(=O)C1=C(C)NC2=C(C(=O)CCC2)C1c1cccnc1 (stereo not shown) [ST017250, propyl 2-methyl-5-oxo-4-(3-pyridyl)-1,4,6,7,8-pentahydroquinoline-3-carboxylate]	49.2	28.5
CCOC(=O)C1=C(C)NC2=C(C(=O)CC(c3ccccc3)C2)C1c1ccccn1 (stereo not shown) [ST017251, ethyl 2-methyl-5-oxo-7-phenyl-4-(2-pyridyl)-1,4,6,7,8-pentahydroquinoline-3-carboxylate]	34.3	90.4
COCCOC(=O)C1=C(C)NC2=C(C(=O)CC(C)(C)C2)C1c1cccnc1 (stereo not shown) [ST017252, 2-methoxyethyl 2,7,7-trimethyl-5-oxo-4-(3-pyridyl)-1,4,6,7,8-pentahydroquinoline-3-carboxylate]	70.5	89.6
CCCOC(=O)C1=C(C)NC2=C(C(=O)CCC2)C1c1ccc(Br)cc1 (stereo not shown) [ST017259, propyl 4-(4-bromophenyl)-2-methyl-5-oxo-1,4,6,7,8-pentahydroquinoline-3-carboxylate]	87	65.5
CCCOC(=O)C1=C(C)NC2=C(C(=O)CC(C)(C)C2)C1c1ccccc1 (stereo not shown) [ST017262, propyl 2,7,7-trimethyl-5-oxo-4-phenyl-1,4,6,7,8-pentahydroquinoline-3-carboxylate]	86	60.1
CCCOC(=O)C1=C(C)NC2=C(C(=O)CC(c3ccccc3)C2)C1c1ccc(CC)cc1 (stereo not shown) [ST017264, propyl 4-(4-ethylphenyl)-2-methyl-5-oxo-7-phenyl-1,4,6,7,8-pentahydroquinoline-3-carboxylate]	48.2	29.7
COc1ccc(C2CC(=O)C3=C(C2)NC(C)=C(C(=O)OCc2ccccc2)C3c2ccncc2)cc1 (stereo not shown) [ST017266, phenylmethyl 7-(4-methoxyphenyl)-2-methyl-5-oxo-4-(4-pyridyl)-1,4,6,7,8-pentahydroquinoline-3-carboxylate]	64.6	65.5
CCCOC(=O)C1=C(C)NC2=C(C(=O)CC(c3ccccc3)C2)C1c1ccc(Cl)cc1Cl (stereo not shown) [ST017293, propyl 4-(2,4-dichlorophenyl)-2-methyl-5-oxo-7-phenyl-1,4,6,7,8-pentahydroquinoline-3-carboxylate]	95.2	57.7
CCOc1ccccc1C1C(C(=O)OC2CCCCC2)=C(C)NC2=C1C(=O)CC(C)(C)C2 (stereo not shown) [ST017304, cyclohexyl 4-(2-ethoxyphenyl)-2,7,7-trimethyl-5-oxo-1,4,6,7,8-pentahydroquinoline-3-carboxylate]	57.2	52
